Laboratory results published in publication PMC12040169 (PLOS Biology, 2025).

Test: in vitro
Details: human, hela cells, % viability

Structure (SMILES) | viability at 28.5 h, 10 µM | viability at 28.5 h, 10 µM (bulk resorufin, single well)
COc1ccccc1Nc1nc(N)c2ccccc2n1 [CBK266665C] | 90.4% | 
Cc1ccc(-c2cc(C(=O)N3CCOCC3)c3cc(Br)ccc3n2)cc1 [CBK066901] | 86.4% | 
CC1CCCN(C(=S)NC2CC3CCC2C3)C1 (stereo not shown) [CBK085999] | 92.7% | 
CCOc1ccc(-c2ccnc(C)n2)cc1C(=O)O [CBK306505] | 104% | 
O=C(C1CCCO1)N1CCC(c2ccc(F)cc2)CC1 (stereo not shown) [CBK283484] | 81.4% | 
O=c1nc2n(Cc3ccccc3)c3ccccc3cc-2c(=O)[nH]1 [CBK287958] | 79.8% | 
CCCN1CCc2c(sc3nc(SCC(=O)OC)nc(N)c23)C1 [CBK126911] | 96.6% | 
Cc1nn2cc(-c3n[nH]cc3[N+](=O)[O-])cnc2c1C(=O)O [CBK268883] | 98.3% | 
Cc1cc2nccc([C@H]3CC[C@H](CNC(=O)C(C)C)CC3)n2n1 [CBK283475] | 94.9% | 
CCOc1ccsc1C(=O)Nc1c(OC)cc(F)cc1OC1CCNCC1 [CBK050292T] | 94.3% | 
COc1cccc(C2C(C(=O)c3ccc(Br)cc3)=C(O)C(=O)N2CCN2CCOCC2)c1OC (stereo not shown) [CBK264855] | 110% | 
c1ccc2c(c1)n(CCN1CCOCC1)c1nc(C34CC5CC(CC(C5)C3)C4)cn21 [CBK278154C] | 105% | 
Cc1sc2nc(SCC(=O)Nc3ccc(S(N)(=O)=O)cc3)n(-c3ccccc3)c(=O)c2c1C [CBK266600] | 108% | 
COC(=O)c1c(NC(=O)c2cnccn2)sc2c1CCC(C)C2 (stereo not shown) [CBK262654] | 96.2% | 
Cc1nc(C2CN(Cc3c(Cl)ccc4cccnc34)CCO2)no1 (stereo not shown) [CBK305317] | 82% | 
COc1ncc(-c2cncc(N[C@H](C)c3ccccc3)n2)c(OC)n1 [CBK065267] | 92.4% | 
Cc1ccc(N(CC(=O)Nc2cc(Cl)ccc2C)S(C)(=O)=O)cc1 [CBK264030] | 92.9% | 
Cc1nc(S(=O)(=O)Cc2nccn2C)n(CC2CCCO2)c1C (stereo not shown) [CBK304012] | 87% | 
CC(=O)Nc1cccc(NC(=O)c2cccc(Cn3cc(Cl)cn3)c2)c1 [CBK265899] | 90.5% | 
CCc1nc2c(N3CCCn4nc(C(O)C5CC5)cc4C3)ncnc2o1 (stereo not shown) [CBK307543] | 78.6% | 
O=C1CC2(CCCCC2)C(C(=O)O)N1 (stereo not shown) [CBK009895] | 114% | 
Cc1ccc(-n2nc(-c3ccc(NC(=O)c4ccccc4)cc3)cc2NC(=O)c2ccccc2)cc1 [CBK261265] | 92.3% | 

Structure (SMILES) | viability at 28.5 h, 10 µM | viability at 28.5 h, 10 µM (bulk resorufin, single well)
CCCC/C=C/c1cncc(NCc2ccc(OC)cc2)n1 [CBK037933] | 96.7% | 
Cc1cc(C)nc(-n2ncc(C#N)c2NC(=O)c2ccccc2)n1 [CBK288135] | 111% | 
O=C(O)c1cc(C(=O)O)c(-c2ccccc2)c(C(=O)O)c1 [CBK261101] | 93.7% | 
CCN1CCN(C(=O)C2CC(C)=C(C)CC2C(=O)O)CC1 (stereo not shown) [CBK270311] | 87.1% | 
COc1ccc2[nH]c3c(c2c1)CCNC31CCN(CCCN2C(=O)C3CCCCC3C2=O)C1 (stereo not shown) [CBK059518] | 88.9% | 
Nc1nc2cccnc2cc1-c1cccc(C(F)(F)F)c1 [CBK081200] | 103% | 
COc1ccc(C(C)C)cc1-c1cncc(N[C@@H](CO)C(C)C)n1 [CBK065356] | 102% | 
Cc1nc(N)nc(N2CCN(C)CC2)n1 [CBK015681] | 100% | 
CC(C)C[C@H](NC(=O)OC(C)(C)C)C(=O)N1CCC(C(=O)O)CC1 [CBK286742] | 80.6% | 
NNC(=O)COc1ccc2ccccc2c1 [CBK261208] | 104% | 
COc1cc(Cl)ccc1NC(=O)Oc1cccc2cnccc12 [CBK012882] |  | 79.9%
COCCOCCOc1ccccc1OCCOCCOC [CBK009636] | 89% | 
COC(=O)c1ccc2oc(-c3cc(C(O)CNC(C)(C)C)ccc3OC(C)C)cc(=O)c2c1 (stereo not shown) [CBK009944C] | 85% | 
Cc1ccc(OCc2nc(C)c(C(=O)N3CCCC(C)C3)s2)cc1 (stereo not shown) [CBK305356] | 94.3% | 
NC(=O)c1ccccc1NC(=O)CCSc1ccc([N+](=O)[O-])cc1Cl [CBK266396] | 80.1% | 
Cc1ccc(CN(C(=O)/C=C/C(=O)O)C(C)(C)C)cc1 [CBK286799] | 91.5% | 
CC(=O)Nc1ccc(S(=O)(=O)N2CCN(CCO)CC2)cc1 [CBK262196] | 95.1% | 
NC(=O)c1csc(-c2ccc(F)cc2F)n1 [CBK067749] | 68.6% | 
O=C1COc2ccccc2C/C=C/CC2(CCN(C(=O)CCn3ccnc3)CC2)CN1 [CBK292131] | 102% | 
COc1ccc(OC)c(CN2CCN(CCCc3ccccc3)CC2)c1 [CBK264304] | 100% | 
Cn1nc(C2CC2)cc1C(=O)NCCCN1CCCc2ccccc21 [CBK282476] | 90.7% | 
O=C1c2cc(S(=O)(=O)NCc3ccco3)ccc2-c2ccc(S(=O)(=O)NCc3ccco3)cc21 [CBK262250] | 98.5% | 

Structure (SMILES) | viability at 28.5 h, 10 µM | viability at 28.5 h, 10 µM (bulk resorufin, single well)
COc1ccc(C(=O)N[C@H]2C[C@@H]3C(=O)N[C@H]4CCN(C(=O)C5CCC5)[C@@H]4C(=O)N3C2)cc1 [CBK289266] | 89.3% | 
O=C(NC1CCN(Cc2c(F)cccc2Cl)CC1)c1cccs1 [CBK057035] | 100% | 
C(#Cc1ccc(-c2cc[nH]n2)s1)c1ccccc1 [CBK023413] | 118% | 
c1c(CC2CCCCC2)nnn1[C@H]1CO[C@H]2[C@@H]1OC[C@@H]2NCC1CC1 [CBK289511] | 99.1% | 
O=C(NC[C@H]1C[C@@H]2CC[N@]1C[C@@H]2CN1CCN(c2ccccn2)CC1)c1ccco1 [CBK288867] | 107% | 
O=C1NC(=O)N(c2cccc([N+](=O)[O-])c2)C(=O)/C1=C\c1ccccc1OCc1ccc(C(=O)O)cc1 [CBK265484] |  | 106%
O=C(O)/C=C/C(=O)Nc1ccccc1Br [CBK086488] | 106% | 
O=C(Nc1cc(Oc2ccc(Cl)cc2)cc([N+](=O)[O-])c1)c1cnn2c(C(F)F)cc(C3CC3)nc12 [CBK268925] | 105% | 
CCOC(=O)C(NS(=O)(=O)c1ccc(NC(C)=O)c(Cl)c1)C(=O)OCC [CBK043996] | 96.2% | 
O=C(Cc1cc(F)cc(F)c1F)Nc1ccc2[nH]ccc2c1 [CBK159686] | 87.4% | 
O=S(=O)(c1ccccc1)c1nc(-c2ccco2)oc1NCCCn1ccnc1 [CBK267670] | 87.1% | 
OCCN1CCN(c2nc(NCC3CCCO3)c3ccccc3n2)CC1 (stereo not shown) [CBK266659C] | 99.1% | 
CN1CCN(C(=O)C[C@@H]2CCNC[C@@H]2Cc2cc(CC3CCCCC3)on2)CC1 [CBK289151] | 84.3% | 
CC(C)(CNC(=O)c1ccc(=O)n(CC(=O)NC2CCCCC2)c1)c1ccccc1F [CBK285983] | 90.7% | 
CC(C)c1nc(NCCc2nnc3n2CCC3)nc(N(C)C)n1 [CBK306409] | 89.1% | 
C1CN=C(SCCCCSC2=NCCCN2)NC1 [CBK278223B] | 107% | 
O=C(Cn1c2ccccc2n2ncnc12)c1ccc(-c2ccccc2)cc1 [CBK263097] | 106% | 
Cc1c(C(C)NC(=O)C2C3CCC(O3)C2C(=O)O)cnn1C (stereo not shown) [CBK286887] | 91.4% | 
COc1ccc(CCc2nc(C)cc(CN(C)C)c2O)cc1 [CBK278313C] | 106% | 
CCCN(CC1CC1)C(=O)CC1SC(NCC2CCCCC2)=NC1=O (stereo not shown) [CBK067014] | 104% | 
CCn1cc(Cl)c(C(=O)NC2CCN(c3nc(C)cc(=O)[nH]3)CC2)n1 [CBK304614] | 88.5% | 
Cn1cc(C2CCCCCN2C(=O)c2cc(C3CC3)on2)cn1 (stereo not shown) [CBK285301] | 104% | 

Structure (SMILES) | viability at 28.5 h, 10 µM | viability at 28.5 h, 10 µM (bulk resorufin, single well)
Cn1nc(-c2ccc(S(=O)(=O)n3cc(C#N)c(N)n3)s2)cc1C(F)(F)F [CBK067237] | 91.2% | 
COc1cc(CNC2CCCCC2)ccc1OCC(N)=O [CBK263866] | 90.9% | 
CC1CCc2n[nH]c(C(=O)NCCCc3ccccn3)c2C1 (stereo not shown) [CBK283194] | 105% | 
COC(=O)C1CCN(C(=O)c2ccc(Oc3cccc(Br)c3)nc2)CC1 [CBK304235] | 103% | 
O=C(O)c1ccc(S(=O)(=O)NCc2ccccc2)cc1 [CBK262093] | 102% | 
O=S(=O)(NN1CCOCC1)c1cc(Cl)cc(Cl)c1O [CBK269279] | 89.8% | 
CCOc1ccc(S(=O)(=O)N2CCN(Cc3cc(C(=O)OC)n(C)c3)CC2)c2cccnc12 [CBK062796] | 92.6% | 
c1ccc(CCN2CCN(CCC(c3ccccc3)c3ccccc3)CC2)cc1 [CBK126432] | 85.4% | 
Cn1c(=O)c2c(nc(CN3CCOCC3)n2CC(=O)c2ccccc2)n(C)c1=O [CBK269195] | 93.2% | 
O=C(CCc1ccccc1)N1CCCC1c1cccc(Cc2ccccc2F)n1 (stereo not shown) [CBK286208] | 118% | 
CC(C)Cc1ccc(C(CC(=O)O)C(=O)O)cc1 (stereo not shown) [CBK286703] | 109% | 
CCN1CCN(c2nc(N)c3ccccc3n2)CC1 [CBK268561C] | 82.4% | 
CCOc1ccccc1NC(=O)CNS(=O)(=O)c1ccccc1 [CBK265860] | 86.9% | 
COc1ccc2[nH]cc(CCNC(=O)c3ccccn3)c2c1 [CBK115866] | 95.7% | 
Nc1nnc(SCc2cccc3ccccc23)[nH]1 [CBK264830] | 103% | 
CC(C(=O)NC1CCCN(CC(F)(F)F)C1)n1cnc2ccccc21 (stereo not shown) [CBK304185] | 96.6% | 
CN(CCO)C(=O)c1cn2cc(-c3cccs3)n(CC3CC3)c(=O)c2n1 [CBK307370] | 92.8% | 
CC(CNC(=O)c1cncc(O)c1)NC(=O)c1cncc(O)c1 (stereo not shown) [CBK278174] | 89.2% | 
CC1CCCN(Cc2nc3c(c(=O)n(C)c(=O)n3C)n2CC(N)=O)C1 (stereo not shown) [CBK306064] | 82.3% | 
Cc1nn(C)c2ncc(S(=O)(=O)NCC(N)c3ccc(F)cc3F)cc12 (stereo not shown) [CBK304303C] | 99.1% | 
O=C(c1ccccc1)N1CCc2[nH]nc(-c3ccccc3)c2C1 [CBK287904] | 92.5% | 
Cc1ccc(CS(=O)(=O)NCCn2nc(C)c(C)c2C)cc1 [CBK281383] | 91.2% | 
